In ChEMBL document CHEMBL1201862, “PubChem BioAssay data set” (2004):
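Cultured in 96-well plates, cells were exposed to test compound for 48 hours across five concentrations. GI50 = concentration required for 50% inhibition of growth.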 Activity calls are given as the source filed them. No stated cut-off is given here; in the data, active = GI50 up to about 1.1 µM and inactive = higher.

Assays:
Test in all cases: inhibition of tumour cell growth, NCI panel, 48 h
NCI-H23 = system: NCI-H23
HOP-92 = system: HOP-92
IGROV-1 = system: IGROV-1
HCT-15 = system: HCT-15
SF-268 = system: SF-268
RXF 393 = system: RXF 393
T47D = system: T47D
A549 = system: A549
EKVX = system: EKVX
OVCAR-3 = system: OVCAR-3
HT-29 = system: HT-29
SF-295 = system: SF-295
HL-60 = system: HL-60
HOP-62 = system: HOP-62
LXFL 529 = system: LXFL 529
KM12 = system: KM12
CAKI-1 = system: CAKI-1
A498 = system: A498
UO-31 = system: UO-31
OVCAR-8 = system: OVCAR-8

Measured: GI50

O=P(NC12CC3CC(CC(C3)C1)C2)(N1CC1)N1CC1
inactive: NCI-H23 6.05 µM | HOP-92 18.5 µM | IGROV-1 > 92.9 µM | SF-268 12.3 µM | RXF 393 15.4 µM | T47D 94.8 µM | A549 26.5 µM | EKVX > 100 µM | OVCAR-3 > 86.1 µM | HT-29 21.2 µM | SF-295 10 µM | HL-60 3.09 µM | HOP-62 12.8 µM | LXFL 529 64.4 µM | KM12 > 100 µM | CAKI-1 1.82 µM | A498 45.5 µM | UO-31 30.5 µM | OVCAR-8 43 µM
> 68.5 µM: HCT-15

C/C(=N\N)C(CN1CCOCC1)C(c1ccccc1)c1c(O)c2ccccc2oc1=O (configuration not stated)
inactive: NCI-H23 > 100 µM | HOP-92 26.3 µM | IGROV-1 > 100 µM | SF-268 > 100 µM | RXF 393 3.38 µM | T47D 12.4 µM | A549 > 75.2 µM | EKVX 83.6 µM | OVCAR-3 > 61.4 µM | HT-29 > 100 µM | SF-295 > 100 µM | HL-60 30.4 µM | HOP-62 > 91 µM | LXFL 529 > 100 µM | KM12 > 81.1 µM | CAKI-1 > 100 µM | A498 69.8 µM | UO-31 44.3 µM | OVCAR-8 > 90.6 µM
> 100 µM: HCT-15

CC(C)(C)NNc1c([N+](=O)[O-])cnn(-c2ccccc2)c1=O
3.95 µM: HCT-15
inactive: NCI-H23 4.82 µM | HOP-92 6.5 µM | IGROV-1 20.4 µM | SF-268 9.82 µM | RXF 393 8.32 µM | T47D 2.29 µM | A549 15.3 µM | EKVX 9.14 µM | OVCAR-3 2.59 µM | HT-29 2.84 µM | SF-295 6.28 µM | HL-60 1.34 µM | HOP-62 8.63 µM | LXFL 529 1.78 µM | KM12 10.4 µM | CAKI-1 8.69 µM | A498 29.8 µM | UO-31 6.12 µM | OVCAR-8 2.26 µM

Cc1c(C(=O)CC(=O)C(=O)Nc2c(C(C)C)cccc2C(C)C)[n+]([O-])c2ccccc2[n+]1[O-]
inactive: NCI-H23 13.2 µM | HOP-92 16.1 µM | IGROV-1 3.55 µM | SF-268 5.01 µM | RXF 393 13.5 µM | A549 15.7 µM | EKVX 13.8 µM | OVCAR-3 2.08 µM | HT-29 3.56 µM | SF-295 14.8 µM | HL-60 2.4 µM | HOP-62 29.7 µM | LXFL 529 11.1 µM | KM12 3.47 µM | CAKI-1 22 µM | A498 29.4 µM | UO-31 16.6 µM | OVCAR-8 2.57 µM
2.79 µM: HCT-15

Cc1ccc2oc(=O)cc(CC(=O)O)c2c1
inactive: NCI-H23 > 100 µM | HOP-92 > 100 µM | IGROV-1 > 100 µM | SF-268 > 100 µM | RXF 393 > 100 µM | A549 > 100 µM | EKVX > 100 µM | OVCAR-3 > 100 µM | HT-29 > 100 µM | SF-295 > 100 µM | HL-60 > 100 µM | HOP-62 > 100 µM | LXFL 529 > 100 µM | KM12 > 100 µM | CAKI-1 > 100 µM | A498 > 100 µM | OVCAR-8 > 100 µM
> 100 µM: HCT-15

[O-][S+]1Nc2c(Cl)cc(Cl)c(Cl)c2S1 (configuration not stated)
44.1 µM: HCT-15
inactive: NCI-H23 > 100 µM | HOP-92 35.2 µM | IGROV-1 > 100 µM | SF-268 > 100 µM | RXF 393 > 100 µM | A549 > 100 µM | EKVX > 100 µM | OVCAR-3 78.2 µM | HT-29 > 100 µM | SF-295 > 100 µM | HL-60 32.7 µM | HOP-62 > 100 µM | LXFL 529 > 100 µM | KM12 > 100 µM | CAKI-1 41.2 µM | A498 82.6 µM | UO-31 86.9 µM | OVCAR-8 > 100 µM

O=C1c2ccccc2CC1C1(O)C(=O)Nc2ccccc21 (configuration not stated)
inactive: NCI-H23 > 100 µM | HOP-92 > 100 µM | IGROV-1 > 100 µM | SF-268 > 100 µM | RXF 393 > 100 µM | A549 > 100 µM | EKVX > 100 µM | OVCAR-3 > 100 µM | HT-29 > 100 µM | SF-295 > 100 µM | HL-60 > 100 µM | HOP-62 > 100 µM | LXFL 529 > 100 µM | CAKI-1 > 100 µM | A498 > 100 µM | UO-31 34.6 µM | OVCAR-8 > 100 µM
> 100 µM: HCT-15

COCNC(=NC#N)NCOC
inactive: NCI-H23 > 100 µM | HOP-92 > 100 µM | IGROV-1 > 100 µM | SF-268 > 100 µM | RXF 393 > 42 µM | A549 > 71.9 µM | EKVX > 100 µM | OVCAR-3 > 100 µM | HT-29 > 100 µM | SF-295 > 100 µM | HL-60 > 68.9 µM | HOP-62 > 100 µM | LXFL 529 > 100 µM | KM12 > 52 µM | CAKI-1 > 100 µM | A498 > 100 µM | UO-31 > 100 µM | OVCAR-8 > 100 µM
> 42.9 µM: HCT-15

O=C(CC(=O)c1cccc([N+](=O)[O-])c1)C(=O)Nc1nc([N+](=O)[O-])cs1
79.6 µM: HCT-15
inactive: NCI-H23 > 100 µM | HOP-92 > 100 µM | IGROV-1 > 100 µM | SF-268 > 100 µM | RXF 393 > 100 µM | A549 > 100 µM | EKVX > 100 µM | OVCAR-3 > 100 µM | HT-29 > 100 µM | SF-295 > 100 µM | HL-60 > 100 µM | HOP-62 > 100 µM | LXFL 529 60.1 µM | KM12 > 100 µM | CAKI-1 83.8 µM | A498 > 100 µM | UO-31 > 100 µM | OVCAR-8 > 100 µM
